US20110207807A1, “NEW USE FOR HOMOISOFLAVONE OR A SALT THEREOF” (Catholic University Industry Academy Cooperation Foundation, priority 2008, published 2011)

How the values were obtained:
rat mast cells = experiment: Antigen (DNP-IgE/DNP-HSA)-induced degranulation of rat mast cells (hexosaminidase release); assay type: cell-based; conditions: at 2 μg/mL, DNP-IgE / 10 ng/mL DNP-HSA, concentration-dependent (FIG. 8c)
Description: Further, the effect of homoisoflavanone on degranulation of rat mast cells induced by antigen was investigated. 5×10^4 rat mast cells were inoculated on a 6-well plate and cultured in MEM containing 15% FBS for 24 hours. Then, after reacting with 1 μg/mL DNP-IgE for 16 hours and then removing DNP-IgE by washing with PBS, the cells were cultured in 15% MEM for 6 hours. After pretreating with homoisoflavanone in Tyrode's solution for 30 minutes, the cells were treated with 10 ng/mL DNP-human serum albumin (HSA) to induce degranulation by transmitting the signals induced by the antigen. 30 minutes later, the supernatant was collected and the pellets were lysed with 0.5% triton X-100 (500 μL). The supernatant and the lysed pellets (70 μL) were incubated at 37° C. for 90 minutes in 0.1 M sodium citrate solution (pH 4.5) containing 8 mM p-nitrophenyl-N-acetyl-β-d-glucosaminide (70 μL). Then, after adding 0.2 M glycine (pH 10.7, 70 μL) to stop the reaction, absorbance was measured at 405 nm. Total enzymatic activity was calculated by the following equation.
Release amount=(Absorbance of supernatant)÷(Absorbance of supernatant+Absorbance of pellets)×100%

[1] = tested on: intracellular reactive oxygen species (ROS); experiment: Intracellular ROS induced by UV radiation (DCFH-DA fluorescence microscopy); assay type: cell-based, human; conditions: HaCaT cells, 1 μg/mL, UV 100 J/m^2, compared to UV only (FIG. 1)
Description: Human keratinocyte cell line HaCaT cells (acquired from Professor N. Fusenig of the German Cancer Research Center) were inoculated on a 60-mm culture dish (5×10^5 cells; 1×10^6 cells for a 100-mm culture dish) and cultured for 24 hours in Dulbecco's modified Eagle's medium (DMEM) containing 10% fetal bovine serum (FBS).
Then, after treating with homoisoflavanone of Chemical Formula 1 (R=OCH3) at a concentration of 1 μg/mL for 1 hour, the cells were washed 3 times with phosphate buffered saline (PBS). In order to generate reactive oxygen species (ROS), the cells were irradiated with UV at 100 J/m^2 using a UV lamp (FSX 24 T12/UVB/HO, Pansol™, USA). Immediately after the UV radiation, the cells were washed again with PBS and further cultured for 4 hours in DMEM containing 1% FBS, while treating with homoisoflavanone at the same concentration. Then, after treating for 30 minutes in Hank's balanced salt solution (HBSS, BioWhittaker, Cambrex, USA) with 25 μM 2,7-dichlorofluorescein diacetate (DCFH-DA), the cells were washed 3 times with PBS.
Thereafter, the ROS induced by UV were measured using a fluorescence microscope (Carl Zeiss, USA). Test groups were subdivided as follows: non-treated group—treated with neither UV nor homoisoflavanone; test group A—treated with homoisoflavanone only; control group—treated with UV only; test group B—treated with UV and homoisoflavanone.

SMILES: COc1ccc(CC2COc3cc(O)cc(O)c3C2=O)cc1O (centres unmarked) [homoisoflavanone]
- inhibition of antigen-induced degranulation (hexosaminidase release) (rat mast cells): 50%
- generation of intracellular ROS induced by UV [1]: decreased significantly
